Reference: patent US20250145665A1, “MACROCYCLIC PEPTIDES USEFUL AS MODULATORS OF TNF ALPHA” (Bristol-Myers Squibb Company, priority 2023, published 2025)
Positions of bridges follow the written chain, without caps; N, C: chain ends. Non-standard residues stand in square brackets, D forms with d. Residues, ends and D or L forms follow the SMILES beside them. ξ: configuration not given here. Bip = N[C@@H](Cc1ccc(-c2ccccc2)cc1)C(=O)O; hhPhe = N[C@@H](CCCc1ccccc1)C(=O)O; h4Pal = N[C@@H](CCc1ccncc1)C(=O)O; 4Pal = N[C@@H](Cc1ccncc1)C(=O)O; ξIle = CC[C@H](C)C(N)C(=O)O; Orn = NCCC[C@H](N)C(=O)O; Sar = CNCC(=O)O

What follows are compounds tested against TNFα (Homo sapiens, UniProt P01375) (assay: TNF-Induced HEK-Blue Assay). Settings: not given.
Sequence of TNFα (P01375 77-233 limits assumed): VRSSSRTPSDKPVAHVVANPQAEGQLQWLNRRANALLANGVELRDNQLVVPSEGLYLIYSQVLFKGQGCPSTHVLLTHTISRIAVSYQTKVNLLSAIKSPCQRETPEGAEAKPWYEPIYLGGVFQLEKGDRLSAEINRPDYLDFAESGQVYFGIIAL
Format: cell-based

| Compound | IC50 [µM] |
| --- | --- |
| CC[C@H](C)[C@@H]1NC(=O)[C@@H]2CCCN2C(=O)[C@H](C(C)C)NC(=O)[C@H](CCCNC(=N)N)NC(=O)[C@H](CC(=O)O)NC(=O)[C@@H]2CCCN2C(=O)CN(C)C(=O)[C@H](Cc2ccc(-c3ccccc3)cc2)NC(=O)[C@H](Cc2ccc(-c3ccccc3)cc2)NC(=O)[C@H](Cc2ccccc2)NC(=O)CSC[C@@H](C(=O)NCC(N)=O)NC(=O)[C@H](CC(C)C)NC(=O)[C@H](CCCNC(=N)N)NC1=O [Example 20] ({CH2CO}-F[Bip][Bip][Sar]PDRVPIRLCG-NH2; thioether N-13) | 0.2 to 2 |

Same assay, conditions: HEK-Blue-CD40L cells, NF-kB-driven secreted alkaline phosphatase reporter; TNFα 0.5 ng/ml; 18 h; read-out: TNF induced HEK-Blue assay IC50 value

| IC50 [µM] | Compound |
| --- | --- |
| 0.2 to 2 | CC(C)C[C@@H]1NC(=O)CSC[C@@H](C(=O)NCC(N)=O)NC(=O)[C@H](CC(C)C)NC(=O)[C@H](CCCNC(=N)N)NC(=O)[C@H](C(C)C)NC(=O)[C@@H]2CCCN2C(=O)[C@H](C(C)C)NC(=O)[C@H](CCCNC(=N)N)NC(=O)[C@H](CC(=O)O)NC(=O)[C@@H]2CCCN2C(=O)CN(C)C(=O)[C@H](Cc2ccc(-c3ccccc3)cc2)NC(=O)[C@H](Cc2ccc(-c3ccccc3)cc2)NC1=O [Example 8] ({CH2CO}-L[Bip][Bip][Sar]PDRVPVRLCG-NH2; thioether N-13) |
| 0.2 to 2 | CC(C)C[C@@H]1NC(=O)[C@H](CCCNC(=N)N)NC(=O)[C@H](C(C)C)NC(=O)[C@@H]2CCCN2C(=O)[C@H](C(C)C)NC(=O)[C@H](CCCNC(=N)N)NC(=O)[C@H](CC(=O)O)NC(=O)[C@@H]2CCCN2C(=O)CN(C)C(=O)[C@H](Cc2ccc(-c3ccccc3)cc2)NC(=O)[C@H](Cc2ccc(-c3ccccc3)cc2)NC(=O)[C@H](C(C)C)NC(=O)CSC[C@@H](C(=O)NCC(N)=O)NC1=O [Example 9] ({CH2CO}-V[Bip][Bip][Sar]PDRVPVRLCG-NH2; thioether N-13) |
| 0.2 to 2 | CC(C)C[C@@H]1NC(=O)[C@H](CCCNC(=N)N)NC(=O)[C@H](C(C)C)NC(=O)[C@@H]2CCCN2C(=O)[C@H](C(C)C)NC(=O)[C@H](CCCNC(=N)N)NC(=O)[C@H](CC(=O)O)NC(=O)[C@@H]2CCCN2C(=O)CN(C)C(=O)[C@H](Cc2ccc(-c3ccccc3)cc2)NC(=O)[C@H](Cc2ccc(-c3ccccc3)cc2)NC(=O)[C@H](CCc2ccncc2)NC(=O)CSC[C@@H](C(=O)NCC(N)=O)NC1=O [Example 10] ({CH2CO}-[h4Pal][Bip][Bip][Sar]PDRVPVRLCG-NH2; thioether N-13) |
| 0.2 to 2 | CC(C)C[C@@H]1NC(=O)[C@H](CCCNC(=N)N)NC(=O)[C@H](C(C)C)NC(=O)[C@@H]2CCCN2C(=O)[C@H](C(C)C)NC(=O)[C@H](CCCNC(=N)N)NC(=O)[C@H](CC(=O)O)NC(=O)[C@@H]2CCCN2C(=O)CN(C)C(=O)[C@H](Cc2ccc(-c3ccccc3)cc2)NC(=O)[C@H](Cc2ccc(-c3ccccc3)cc2)NC(=O)[C@H](Cc2ccncc2)NC(=O)CSC[C@@H](C(=O)NCC(N)=O)NC1=O [Example 11] ({CH2CO}-[4Pal][Bip][Bip][Sar]PDRVPVRLCG-NH2; thioether N-13) |
| 0.2 to 2 | CC(C)C[C@@H]1NC(=O)[C@H](CCCNC(=N)N)NC(=O)[C@H](C(C)C)NC(=O)[C@@H]2CCCN2C(=O)[C@H](C(C)C)NC(=O)[C@H](CCCNC(=N)N)NC(=O)[C@H](CC(=O)O)NC(=O)[C@@H]2CCCN2C(=O)CN(C)C(=O)[C@H](Cc2ccc(-c3ccccc3)cc2)NC(=O)[C@H](Cc2ccc(-c3ccccc3)cc2)NC(=O)[C@H](CCCc2ccccc2)NC(=O)CSC[C@@H](C(=O)NCC(N)=O)NC1=O [Example 12] ({CH2CO}-[hhPhe][Bip][Bip][Sar]PDRVPVRLCG-NH2; thioether N-13) |
| 0.2 to 2 | CC(C)C[C@@H]1NC(=O)[C@H](CCCNC(=N)N)NC(=O)[C@H](C(C)C)NC(=O)[C@@H]2CCCN2C(=O)[C@H](Cc2ccc(O)cc2)NC(=O)[C@H](CCCNC(=N)N)NC(=O)[C@H](CC(=O)O)NC(=O)[C@@H]2CCCN2C(=O)CN(C)C(=O)[C@H](Cc2ccc(-c3ccccc3)cc2)NC(=O)[C@H](Cc2ccc(-c3ccccc3)cc2)NC(=O)[C@H](Cc2ccccc2)NC(=O)CSC[C@@H](C(=O)NCC(N)=O)NC1=O [Example 15] ({CH2CO}-F[Bip][Bip][Sar]PDRYPVRLCG-NH2; thioether N-13) |
| 0.2 to 2 | CC(C)C[C@@H]1NC(=O)[C@H](CCCNC(=N)N)NC(=O)[C@H](C(C)C)NC(=O)CN(C)C(=O)[C@H](C(C)C)NC(=O)[C@H](CCCNC(=N)N)NC(=O)[C@H](CC(=O)O)NC(=O)[C@@H]2CCCN2C(=O)CN(C)C(=O)[C@H](Cc2ccc(-c3ccccc3)cc2)NC(=O)[C@H](Cc2ccc(-c3ccccc3)cc2)NC(=O)[C@H](Cc2ccccc2)NC(=O)CSC[C@@H](C(=O)NCC(N)=O)NC1=O [Example 16] ({CH2CO}-F[Bip][Bip][Sar]PDRV[Sar]VRLCG-NH2; thioether N-13) |
| 0.2 to 2 | CC(C)C[C@@H]1NC(=O)[C@H](CCCNC(=N)N)NC(=O)[C@H](C(C)C)NC(=O)[C@H](C(C)C)NC(=O)[C@H](C(C)C)NC(=O)[C@H](CCCNC(=N)N)NC(=O)[C@H](CC(=O)O)NC(=O)[C@@H]2CCCN2C(=O)CN(C)C(=O)[C@H](Cc2ccc(-c3ccccc3)cc2)NC(=O)[C@H](Cc2ccc(-c3ccccc3)cc2)NC(=O)[C@H](Cc2ccccc2)NC(=O)CSC[C@@H](C(=O)NCC(N)=O)NC1=O [Example 17] ({CH2CO}-F[Bip][Bip][Sar]PDRVVVRLCG-NH2; thioether N-13) |
| 0.2 to 2 | CC(C)C[C@@H]1NC(=O)[C@H](CCC(N)=O)NC(=O)[C@H](C(C)C)NC(=O)[C@@H]2CCCN2C(=O)[C@H](C(C)C)NC(=O)[C@H](CCCNC(=N)N)NC(=O)[C@H](CC(=O)O)NC(=O)[C@@H]2CCCN2C(=O)CN(C)C(=O)[C@H](Cc2ccc(-c3ccccc3)cc2)NC(=O)[C@H](Cc2ccc(-c3ccccc3)cc2)NC(=O)[C@H](Cc2ccccc2)NC(=O)CSC[C@@H](C(=O)NCC(N)=O)NC1=O [Example 18] ({CH2CO}-F[Bip][Bip][Sar]PDRVPVQLCG-NH2; thioether N-13) |
| 0.2 to 2 | CC[C@H](C)[C@@H]1NC(=O)[C@H](C(C)C)NC(=O)[C@@H]2CCCN2C(=O)[C@H](C(C)C)NC(=O)[C@H](CCCNC(=N)N)NC(=O)[C@H](CC(=O)O)NC(=O)[C@H](Cc2ccc(O)cc2)NC(=O)CN(C)C(=O)[C@H](Cc2ccc(-c3ccccc3)cc2)NC(=O)[C@H](Cc2ccc(-c3ccccc3)cc2)NC(=O)[C@H](Cc2ccccc2)NC(=O)CSC[C@@H](C(=O)NCC(N)=O)NC(=O)[C@H](CC(C)C)NC1=O [Example 19] ({CH2CO}-F[Bip][Bip][Sar]YDRVPVILCG-NH2; thioether N-13) |

Further lines, the compound ahead of its results:

| Compound | IC50 [µM] |
| --- | --- |
| CC(C)C[C@@H]1NC(=O)[C@H](CCCNC(=N)N)NC(=O)[C@H](C(C)C)NC(=O)[C@@H]2CCCN2C(=O)[C@H](C(C)C)NC(=O)[C@H](CCCNC(=N)N)NC(=O)[C@H](CC(=O)O)NC(=O)[C@@H]2CCCN2C(=O)CN(C)C(=O)[C@H](Cc2ccc(-c3ccccc3)cc2)NC(=O)[C@H](Cc2ccc(-c3ccccc3)cc2)NC(=O)[C@H](Cc2ccccc2)NC(=O)CSC[C@@H](C(=O)NCC(N)=O)NC1=O [Example 1] ({CH2CO}-F[Bip][Bip][Sar]PDRVPVRLCG-NH2; thioether N-13) | 0.2 to 2 |
| CC(C)C[C@@H]1NC(=O)[C@H](CCCN)NC(=O)[C@H](C(C)C)NC(=O)[C@@H]2CCCN2C(=O)[C@H](C(C)C)NC(=O)[C@H](CCCNC(=N)N)NC(=O)[C@H](CC(=O)O)NC(=O)[C@@H]2CCCN2C(=O)CN(C)C(=O)[C@H](Cc2ccc(-c3ccccc3)cc2)NC(=O)[C@H](Cc2ccc(-c3ccccc3)cc2)NC(=O)[C@H](Cc2ccccc2)NC(=O)CSC[C@@H](C(=O)NCC(N)=O)NC1=O [Example 2] ({CH2CO}-F[Bip][Bip][Sar]PDRVPV[Orn]LCG-NH2; thioether N-13) | 0.2 to 2 |
| CC(C)C[C@@H]1NC(=O)[C@H](CCCCN)NC(=O)[C@H](C(C)C)NC(=O)[C@@H]2CCCN2C(=O)[C@H](C(C)C)NC(=O)[C@H](CCCNC(=N)N)NC(=O)[C@H](CC(=O)O)NC(=O)[C@@H]2CCCN2C(=O)CN(C)C(=O)[C@H](Cc2ccc(-c3ccccc3)cc2)NC(=O)[C@H](Cc2ccc(-c3ccccc3)cc2)NC(=O)[C@H](Cc2ccccc2)NC(=O)CSC[C@@H](C(=O)NCC(N)=O)NC1=O [Example 3] ({CH2CO}-F[Bip][Bip][Sar]PDRVPVKLCG-NH2; thioether N-13) | 0.2 to 2 |
| CC(C)C[C@@H]1NC(=O)[C@H](CCCNC(=N)N)NC(=O)[C@H](C(C)C)NC(=O)[C@@H]2CCCN2C(=O)[C@H](C(C)C)NC(=O)[C@H](CCCNC(=N)N)NC(=O)[C@H](CC(=O)O)NC(=O)[C@@H]2CCCN2C(=O)CN(C)C(=O)[C@H](Cc2ccc(-c3ccccc3)cc2)NC(=O)[C@H](Cc2ccc(-c3ccccc3)cc2)NC(=O)[C@H](Cc2ccc(O)cc2)NC(=O)CSC[C@@H](C(=O)NCC(N)=O)NC1=O [Example 4] ({CH2CO}-Y[Bip][Bip][Sar]PDRVPVRLCG-NH2; thioether N-13) | 0.2 to 2 |
| CC(C)C[C@@H]1NC(=O)[C@H](CCCNC(=N)N)NC(=O)[C@H](C(C)C)NC(=O)[C@@H]2CCCN2C(=O)[C@H](C(C)C)NC(=O)[C@H](CCCNC(=N)N)NC(=O)[C@H](CC(=O)O)NC(=O)[C@@H]2CCCN2C(=O)CN(C)C(=O)[C@H](Cc2ccc(-c3ccccc3)cc2)NC(=O)[C@H](Cc2ccc(-c3ccccc3)cc2)NC(=O)[C@H](Cc2c[nH]c3ccccc23)NC(=O)CSC[C@@H](C(=O)NCC(N)=O)NC1=O [Example 5] ({CH2CO}-W[Bip][Bip][Sar]PDRVPVRLCG-NH2; thioether N-13) | 0.2 to 2 |
| CC(C)C[C@@H]1NC(=O)[C@H](CCCNC(=N)N)NC(=O)[C@H](C(C)C)NC(=O)[C@@H]2CCCN2C(=O)[C@H](C(C)C)NC(=O)[C@H](CCCNC(=N)N)NC(=O)[C@H](CC(=O)O)NC(=O)[C@@H]2CCCN2C(=O)CN(C)C(=O)[C@H](Cc2ccc(-c3ccccc3)cc2)NC(=O)[C@H](Cc2ccc(-c3ccccc3)cc2)NC(=O)[C@H](CCCCN)NC(=O)CSC[C@@H](C(=O)NCC(N)=O)NC1=O [Example 6] ({CH2CO}-K[Bip][Bip][Sar]PDRVPVRLCG-NH2; thioether N-13) | 0.2 to 2 |
| CC[C@H](C)C1NC(=O)CSC[C@@H](C(=O)NCC(N)=O)NC(=O)[C@H](CC(C)C)NC(=O)[C@H](CCCNC(=N)N)NC(=O)[C@H](C(C)C)NC(=O)[C@@H]2CCCN2C(=O)[C@H](C(C)C)NC(=O)[C@H](CCCNC(=N)N)NC(=O)[C@H](CC(=O)O)NC(=O)[C@@H]2CCCN2C(=O)CN(C)C(=O)[C@H](Cc2ccc(-c3ccccc3)cc2)NC(=O)[C@H](Cc2ccc(-c3ccccc3)cc2)NC1=O (stereo partly drawn) [Example 7] ({CH2CO}-[ξIle][Bip][Bip][Sar]PDRVPVRLCG-NH2; thioether N-13) | 0.2 to 2 |
